Data: patent publication US12285403B2, “A2-73 as a therapeutic for insomnia, anxiety and agitation” (Anavex Life Sciences Corp., priority 2016, dated 2025)

System: mild-to-moderate AD patients
Experiment: Hamilton Depression Rating Scale (HAM-D), open-label Phase 2a clinical trial
Assay type: in vivo, human
Conditions: for Insomnia HAM-D Q5 Middle Insomnia, Mean ± SD / Insomnia HAM-D Q6 Late Insomnia, Mean ± SD / Insomnia HAM-D Q4 Initial Insomnia, Mean ± SD: score 0-2; for Insomnia HAM-D Q5 Middle Insomnia, Mean ± SD: baseline 1.5 ± 0.7; for Insomnia HAM-D Q6 Late Insomnia, Mean ± SD: baseline 1.6 ± 0.5; for Insomnia HAM-D Q4 Initial Insomnia, Mean ± SD: baseline 2 ± 0.0
Experimental: Efficacy data is presented through 31 week from the randomized (into different treatment regimens) open-label study with ANAVEX 2-73 oral daily dosing ranging from 10 mg to 50 mg. The data establish a method for treating insomnia, anxiety, or agitation in a subject. Efficacy extends to daily doses of up to about 100 mg of […], A1-41 or A19-144. Note is made of doses of A2-73, A1-41 or A19-144 of about 10 mg to about 30 mg, about 20 mg to about 40 mg, about 50 mg to about 80 mg. Oral dosing daily or every other day is contemplated.
This is consistent with Table 1 showing a reduction in insomnia, anxiety, and other symptoms.
The data of Table 1 is from an open-label, clinical trial, performed on a group of 30 mild-to-moderate AD patients (MMSE range 16-23, 40% female) on donepezil treatment, with ANAVEX 2-73.

[1] = 30 mild-to-moderate AD patients on donepezil, open-label
[2] = 30 mild-to-moderate AD patients on donepezil, open-label, total 28 improvements

CN(C)CC1CCOC1(c1ccccc1)c1ccccc1.Cl (stereo not shown) [A2-73, tetrahydro-N,N-dimethyl-2,2-diphenyl-3-furanmethanamine hydrochloride] was tested, and the “Scored Improvement Count, improved item of HAM-D: Agitation” value [1] was 4, the “Scored Improvement Count, improved item of HAM-D: Anxiety (psychic and somatic)” value [1] was 5 and the “Scored Improvement Count, improved item of HAM-D: Depressed” value [1] was 4. For the same molecule, the “Scored Improvement Count, improved item of HAM-D: Guilt” value [1] was 1, the “Scored Improvement Count, improved item of HAM-D: Hypochondriasis” value [1] was 2 and the “Scored Improvement Count, improved item of HAM-D: Insight” value [1] was 3. For the same molecule, the “Scored Improvement Count, improved item of HAM-D: Insomnia” value [1] was 8, the “Scored Improvement Count, improved item of HAM-D: Loss of libido or other genital symptoms” value [1] was 2 and the “Scored Improvement Count, improved item of HAM-D: Work and activities” value [1] was 6. The “Scored Improvement in [%], improved item of HAM-D: Agitation” value [2] was 14%, the “Scored Improvement in [%], improved item of HAM-D: Anxiety (psychic and somatic)” value [2] was 18% and the “Scored Improvement in [%], improved item of HAM-D: Depressed” value [2] was 14%. The “Scored Improvement in [%], improved item of HAM-D: Guilt” value [2] was 4%, the “Scored Improvement in [%], improved item of HAM-D: Hypochondriasis” value [2] was 7% and the “Scored Improvement in [%], improved item of HAM-D: Insight” value [2] was 11%. For the same molecule, the “Scored Improvement in [%], improved item of HAM-D: Insomnia” value [2] was 29%, the “Scored Improvement in [%], improved item of HAM-D: Loss of libido or other genital symptoms” value [2] was 7% and the “Scored Improvement in [%], improved item of HAM-D: Work and activities” value [2] was 21%. The “Insomnia HAM-D Q5 Middle Insomnia, Mean ± SD” value (Day 13) was 1.0 ± 1.4, the “Insomnia HAM-D Q6 Late Insomnia, Mean ± SD” value (Day 13) was 0.0 ± 0.0 and the “Insomnia HAM-D Q4 Initial Insomnia, Mean ± SD” value (Day 13) was 2 ± 0.0. The “Insomnia HAM-D Q5 Middle Insomnia, Mean ± SD” value (Week 12/26) was 0.0 ± 0.0, the “Insomnia HAM-D Q6 Late Insomnia, Mean ± SD” value (Week 12/26) was 0.0 ± 0.0 and the “Insomnia HAM-D Q4 Initial Insomnia, Mean ± SD” value (Week 12/26) was 0.0 ± 0.0. The “Overall Hamilton Depression Rating Scale (HAM-D)” value (after 31 weeks of dosing, FIG. 7) was “reduction”, the “Changes in other behavioral items (HAM-D)” value (baseline to week 12) was “not statistically significant” and the “Subjective reports of insomnia (sleep items of HAM-D)” value (baseline to week 12, t=4.2, p<0.05, 30 AD patients, listed as ANAVEX 2-73, hydrochloride) was “marked insomnia improvements”. The “Scored Improvement Count, improved items of HAM-D: Total” value (sum over all improved HAM-D items) was 28.
